Measurements reported in patent US20230227406A1, “MODULATORS OF E3 LIGASES” (Rekindle Therapeutics Inc., priority 2020, published 2023).

Experiments:
[1] = tested on: phosphorylated AKT and phosphorylated Ribosomal Protein S6; assay: Western blot of AKT and S6 phosphorylation in Hs578T cells; type: cell-based, human; settings: 48 hours, indicated concentrations
Experimental: Hs578T cells (human triple negative breast cancer) were treated with the indicated concentration of COMPOUND 1 for 48 hours prior to harvesting. The “0” concentration is DMSO only (0.5%, same as was used for compound doses). […] Analysis occurred via western blot using the indicated antibodies. Quantification by densitometry of the bands from the western blot are presented for phosphorylated AKT/Total AKT and phosphorylated Ribosomal Protein S6/Total Ribosomal Protein S6. COMPOUND 1 reduced both AKT and S6 phosphorylation relative to their respective total protein levels.
The data presented here are consistent with the previous replicate in Hs578T cells, and the observation is preserved in another TNBC cell line, BT-20. COMPOUND 1 reduces the phospho-AKT/vinculin loading control and phospho-S6/total S6 ratios. Methods are the same as the previous replicate, using the indicated doses.
Hs578T cells (human triple negative breast cancer) were treated with the indicated concentration of COMPOUND 6 for 48 hours prior to harvesting. The “0” concentration is DMSO only (0.5%, same as was used for compound doses). […] Analysis occurred via western blot using the indicated antibodies.
The data presented here are consistent with the previous replicate in Hs578T cells. COMPOUND 6 reduces the phospho-AKT/vinculin loading control and phospho-S6/total S6 ratios. Methods are the same as the previous replicate, using the indicated doses.
Hs578T cells (human triple negative breast cancer) were treated with the indicated concentration of COMPOUND 7 for 48 hours before harvesting. The “0” concentration is DMSO only (0.5%, same as was used for compound doses). […] Analysis occurred via western blot using the indicated antibodies.
The data presented here are consistent with the previous replicate in Hs578T cells. COMPOUND 7 reduces the phospho-S6/vinculin loading control ratio. Methods are the same as the previous replicate, using the indicated doses.
Hs578T cells (human triple negative breast cancer) were treated with the indicated concentration of COMPOUND 8 for 48 hours and then harvested. The “0” concentration is DMSO only (0.5%, same as was used for compound doses). […] Analysis occurred via western blot using the indicated antibodies.

[2] = target: T1, WWP1 (Homo sapiens, UniProt Q9H0M0); assay: WWP1 MALDI-MS ubiquitin depletion assay (auto-ubiquitination); type: biochemical; settings: 30 min pre-incubation, 90 minutes at 37° C.
T1 construct: purchased Ubiquigent 63-0034-025/30033/D
T1 sequence (Q9H0M0 whole entry): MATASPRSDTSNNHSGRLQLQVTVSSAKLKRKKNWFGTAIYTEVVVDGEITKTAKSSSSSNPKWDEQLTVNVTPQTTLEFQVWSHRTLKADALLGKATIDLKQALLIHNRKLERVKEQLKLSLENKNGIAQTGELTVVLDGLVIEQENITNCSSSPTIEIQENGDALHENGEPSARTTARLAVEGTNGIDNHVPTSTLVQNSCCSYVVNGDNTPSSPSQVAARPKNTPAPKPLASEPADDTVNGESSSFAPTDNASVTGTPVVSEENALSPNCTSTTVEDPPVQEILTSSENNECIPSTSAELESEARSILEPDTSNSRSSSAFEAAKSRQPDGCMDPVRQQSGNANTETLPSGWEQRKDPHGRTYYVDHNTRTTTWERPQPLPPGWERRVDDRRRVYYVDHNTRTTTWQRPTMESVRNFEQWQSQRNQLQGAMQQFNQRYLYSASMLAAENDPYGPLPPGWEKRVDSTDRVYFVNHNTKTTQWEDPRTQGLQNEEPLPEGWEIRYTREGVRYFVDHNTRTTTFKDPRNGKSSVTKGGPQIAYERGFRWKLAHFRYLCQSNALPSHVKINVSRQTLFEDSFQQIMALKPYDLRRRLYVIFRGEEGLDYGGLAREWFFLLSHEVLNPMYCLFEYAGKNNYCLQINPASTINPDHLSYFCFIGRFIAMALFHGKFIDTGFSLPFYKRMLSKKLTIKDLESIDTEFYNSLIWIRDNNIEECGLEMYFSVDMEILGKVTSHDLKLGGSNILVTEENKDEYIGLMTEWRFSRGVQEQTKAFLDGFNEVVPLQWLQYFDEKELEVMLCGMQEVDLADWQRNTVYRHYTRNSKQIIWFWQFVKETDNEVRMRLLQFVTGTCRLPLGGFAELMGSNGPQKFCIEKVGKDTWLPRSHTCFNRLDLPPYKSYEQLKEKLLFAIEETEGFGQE
Experimental: Modulators designed in these ways were tested for HECT domain E3 ligase activity in a MALDI TOF assay of auto-ubiquitination (De Cesare et al, Cell Chem. Biol, 2018, 25, 1117)
UBE1 (E-305 Boston Biochem), UBE2D1 (E2-616 Boston Biochem), WWP1 (Ubiquigent #63-0034-025/30033/D), ubiquitin variants (Boston Biochem; ubiquitin: U-100H; WT-His6-Ub: U-530; K27R-His6-Ub:UM-HK27R; K27O-His6-Ub: UM-HK27O), alpha-cyano-4-hydroxycinnamic acid (CHCA), ATP, trifluoroacetic acid (Millipore Sigma, St. Louis, Mo.), 384-well round-bottom polypropylene microplates (781280, Greiner, Stonehouse, UK), 384-well Anchorchip MALDI targets and Peptide Calibration Standard II (Bruker Daltonics, Billerica, Mass.).
Protocol: The WWP1 ubiquitin depletion assay consists of recombinant UBE1 (5 nM), UBE2D1 conjugating enzyme (60 nM) and WWP1 ligase (50 nM) in a 10 mM HEPES pH 8.0 containing 0.1 mg/mL BSA, 10 mM MgCl2, 1 mM ATP and 1500 nM ubiquitin. Screening was performed by dispensing 3.5 μL of an enzyme solution containing UBE1 (10 nM), UBE2D1 (120 nM), WWP1 (100 nM), ubiquitin ([…]) to a 384-well round bottom polypropylene plates followed by incubation at 37° C. for 30 min. Reactions were initiated by the addition of 3.5 μL of an ATP solution (2000 nM) then incubated at 37° C. for 90 minutes before being quenched by the addition of 5 μL of a 50 mM EDTA solution containing 750 nM of a ubiquitin labelled with a histidine expression tag (m/z=9460.0 Da).
For detection of ubiquitin and the ubiquitin-6His internal standards, 50 nL of quenched reaction was dispensed onto a 384-well Anchorchip MALDI target plate (Bruker) pre-coated with a uniform layer of CHCA crystals immediately followed by 200 nL of a 3 mg/mL CHCA matrix solution (6 mg of CHCA dissolved in 0.7 mL of 100% ethanol and 1.3 mL of 0.31% aqueous TFA) using a TTP Labtech Mosquito liquid handler. Spectra for all reactions were acquired on a Bruker AutoFlex II in positive linear TOF mode from 1000 laser shots with ion suppression below 4000 Da. Spectra were analyzed for response using a centroid peak-fitting algorithm to quantify ubiquitin (m/z=8564.0 Da) and ubiquitin-6His (m/z=9460.0 Da) followed taking the ratio of intensities of ubiquitin and the ubiquitin-6His internal standard.
For compound screening, 140 nL of diluted compound in 100% DMSO was added to the WWP1 enzyme solution and pre-incubated for 30 minutes prior to reaction initiation.

IC50 [2] [µM]	Structure (SMILES)	AKT phosphorylation (relative to total AKT or vinculin loading control) [1]	S6 phosphorylation (relative to total S6 or vinculin loading control) [1]
15	C#CCN(CCO)C(=O)c1ccc2c(Cc3c[nH]c4ccccc34)c[nH]c2c1 [Compound 7, 3-((1H-indol-3-yl)methyl)-N-(2-hydroxyethyl)-N-(prop-2-yn-1-yl)-1H-indole-6-carboxamide]	reduced	reduces
5	C#Cc1ccc2c(C=O)cn(-c3ccccc3)c2c1 [Compound 1, 6-ethynyl-1-phenyl-1H-indole-3-carbaldehyde]	reduces	reduces
32	C#CCNC(=O)c1ccc2c(Cc3c[nH]c4ccccc34)c[nH]c2c1 [Compound 6, 3-((1H-indol-3-yl)methyl)-N-(prop-2-yn-1-yl)-1H-indole-6-carboxamide]	reduces	reduces
